pIC50: −log10 of the molar value.
Experiments:
Type in all cases: functional
Oryctolagus cuniculus = species on record: Oryctolagus cuniculus; experiment: In vitro inhibition of protein synthesis in rabbit reticulocyte lysates.
SNB-75 = experiment: Compound was evaluated for cytotoxic activity against CNS cancer SNB-75 cell lines.; settings: Homo sapiens, read-out: LC50 (the source's name)
A549 = experiment: Compound was evaluated for cytotoxic activity against non-small lung cancer A549/ATCC cell lines.; settings: Homo sapiens, read-out: LC50 (the source's name)
HT-29 = experiment: Compound was evaluated for cytotoxic activity against colon cancer HT-29 cell lines.; settings: Homo sapiens, read-out: LC50 (the source's name)
SK-MEL-5 = experiment: Compound was evaluated for cytotoxic activity against melanoma Sk-MEL-5 cell lines.; settings: Homo sapiens, read-out: LC50 (the source's name)
RXF 393 = experiment: Compound was evaluated for cytotoxic activity against renal cancer RXF-393 cell lines.; settings: Homo sapiens, read-out: LC50 (the source's name)

Question: `CC[C@H](C)[C@H]1NC(=O)[C@@H](NC(=O)[C@@H](CC(C)C)N(C)C(=O)[C@@H]2CCCN2C(=O)[C@H](C)O)[C@@H](C)OC(=O)[C@H](CC(C)C)N(C)C(=O)[C@@H]2CCCN2C(=O)[C@H](CC(C)C)NC(=O)[C@@H](C)C(=O)[C@H](C(C)C)OC(=O)C[C@@H]1O` [listing 1 of 2 here] was tested. Which pIC50 (Oryctolagus cuniculus) did it give?
Answer: The pIC50 was 5.05.

Question: `CC[C@H](C)[C@H]1NC(=O)[C@@H](NC(=O)[C@@H](CC(C)C)N(C)C(=O)[C@@H]2CCCN2C(=O)[C@H](C)O)[C@@H](C)OC(=O)[C@H](CC(C)C)N(C)C(=O)[C@@H]2CCCN2C(=O)[C@H](CC(C)C)NC(=O)[C@@H](C)C(=O)[C@H](C(C)C)OC(=O)C[C@@H]1O` [listing 2 of 2 here] was tested. Which CC50 (SNB-75) did it give?
Answer: The CC50 was 399 nM.

Question: And the CC50 (A549)?
Answer: Its CC50 is over 25000 nM.

Question: What about the CC50 (HT-29) of the same compound?
Answer: The CC50 was 445 nM.

Question: And the CC50 (SK-MEL-5)?
Answer: Its CC50 is 79.9 nM.

Question: And the CC50 (RXF 393)?
Answer: The CC50 was 258 nM.

Source: ChEMBL document CHEMBL1128927, “Synthesis and biological activities of [N-MeLeu5] didemnin B” (Bioorg Med Chem Lett, 1996)
